For one compound, IC50 results are on record in US20190177279A1, “CARBOXYLIC ACID AROMATIC 1,2-CYCLOPROPYLAMIDES” (Bayer Pharma Aktiengesellschaft, priority 2017, published 2019).

Like-named read-outs stand apart in the source and are kept apart here.

The target in the assay is T1, human B1 receptor (Homo sapiens, UniProt P46663).
T1 construct: host or cells: CHO-K1
T1 sequence (P46663 1-353): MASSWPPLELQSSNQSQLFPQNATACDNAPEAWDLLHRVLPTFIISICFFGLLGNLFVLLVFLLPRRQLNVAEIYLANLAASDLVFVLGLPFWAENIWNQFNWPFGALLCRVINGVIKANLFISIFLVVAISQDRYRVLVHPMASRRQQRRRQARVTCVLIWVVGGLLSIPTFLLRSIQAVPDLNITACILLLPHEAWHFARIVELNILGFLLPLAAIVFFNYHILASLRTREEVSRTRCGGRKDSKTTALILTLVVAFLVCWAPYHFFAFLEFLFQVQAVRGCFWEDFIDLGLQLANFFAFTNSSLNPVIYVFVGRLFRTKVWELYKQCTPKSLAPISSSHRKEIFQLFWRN
The assay can be described thus: Calcium flux assay (FLIPR) with recombinant CHO-K1 cells expressing human B1 receptor. The assay is classed as cell-based. Particulars: agonist Lys-(Des-Arg)-Bradykinin. As to the method: The potency to inhibit the Bradykinin B1 receptors was determined for the example compounds of this invention in a cell-based fluorescent calcium-mobilisation assay. The assay measures the ability of example compounds to inhibit Bradykinin B1 receptor agonist-induced increase of intracellular free Ca^2+ in the cell line expressing B1 receptor. Specifically, calcium indicator—loaded cells are pre-incubated in the absence or presence of different concentrations of example compounds followed by the stimulation with a selective B1 receptor agonist peptide. The change of the intracellular Ca^2+ concentration is monitored with a fluorescent plate reader FLIPR (Molecular Devices).
Calcium flux Assay (FLIPR) with recombinant cells for Bradykinin B1 receptor antagonist, either in the presence (hB1 IC50) or absence (hB1 free IC50) of 0.1% BSA in assay buffer
CHO-K1 cell line expressing human B1 receptor was purchased from Euroscreen (Gosselies, Belgium, with reference name hB1-D1). The cells were grown in Nutrient Mixture Ham's F12 (Sigma) containing 10% Foetal bovine serum (Sigma) and 400 μg/mL G418 (Sigma), 5 μg/mL puromycin (Sigma).
For the calcium flux assay, 80% confluent cells were detached from the culture vessels with Versene (Gibco), and seeded into 384-well plates (Cell binding Surface; Corning, N.Y.; #3683) at a density of 15,000 cells per well. Cells were seeded in a volume of 50 μL in medium without antibiotics and incubated overnight in a humidified atmosphere with 5% CO2 at 37° C. […] The calcium indicator loaded cells were incubated at 37° C. for 2 hrs. Extracellular dye was then removed and each well was filled with 45 μL of assay buffer. Cell plates were kept in dark until used. Example compounds were assayed at 8 concentrations in triplicate. Serial 10-fold dilutions in 100% DMSO were made at a 100-times higher concentration than the final concentration, and then diluted 1:10 in assay buffer. 5 μL of each diluted compound was added to the well of cell plates (yielding final concentration with 1% DMSO), and incubated for 30 min at 28° C. before the addition of B1 receptor agonist on the FLIPR instrument.
Agonist plates contained the agonist Lys-(Des-Arg)-Bradykinin (Bachem, Brackley) at 3.5×EC90 in assay buffer with 1% DMSO. The addition of agonist 20 μl per well to the assay plate was carried out on the FLIPR instrument while continuously monitoring Ca^2+-dependent fluorescence at 538 nm. A peptide antagonist Lys-(Des-Arg-Leu)-Bradykinin (Bachem, Brackley) at 20 µM was used to determine the full inhibition as control.
Peak fluorescence was used to determine the response to agonist obtained at each concentration of example compound by the following equation:
% Response=100*(RFU(example compound)−RFU(control)/(RFU(DMSO)−RFU(control)) • Control=full inhibition by the peptide antagonist Lys-(Des-Arg-Leu)-Bradykinin at 20 μM
The response values were plotted against the logarithm of the compound concentrations. The compounds were tested in triplicates per plate and mean values were plotted in Excel XLfit to determine IC50 values, percentage of maximal inhibition and the Hill slopes.

Take `O=C(O)c1cc(NC(=O)C2CC2c2ccc(Cl)cc2)cc(F)c1-c1cnn(C2CCC2)c1` (racemic) [Example 2, 5-({[2-(4-chlorophenyl)cyclopropyl]carbonyl}amino)-2-(1-cyclobutyl-1H-pyrazol-4-yl)-3-fluorobenzoic acid]: the half-inhibitory concentration (IC50) amounted to 22 nM (absence of 0.1% BSA in assay buffer, read-out: hB1 free IC50) and 78 nM (presence of 0.1% BSA in assay buffer, read-out: hB1 IC50).
